Test results: patent US20090203877A1, “X-RAY-DENSE CONJUGATE” (Eberhard-Karls-Universitaet Tuebingen Universitaetsklinkum, priority 2006, published 2009)
Entries after “also recorded” stand apart in the source; their conditions may differ.

System: human malignant U373 glioma cells
Assay: Uptake/staining of cells by FITC-labelled conjugates (fluorescence microscopy, CLSM, FACS, semi-thin sections)
Type: cell-based
Conditions: for strongly labeled (heavily stained) cells, FACS: 20 min incubation; for stained cells: 260 μM in PBS, 20 min (experiments with conjugates 9-15)
Method: Fluorescence was measured in a Becton Dickinson FACSCalibur. […] The investigations were performed in triplicate.
For CT and FACS human U373 glioma cells were grown under the same conditions in 75 cm^2 culture flasks (Corning Costar, Bodenheim, Germany) (70% confluency). Accutase™ (PAA laboratories, Pasching, Austria) was added to achieve detachment of the cells which were harvested and subsequently aliquoted into Eppendorf tubes (6×10^6 cells per tube). As in the investigations performed by fluorescence microscopy, the cells in the first tube served as a control (PBS only). The cells in the other tubes were incubated with 260 μM Ultravist, 260 μM TIBA in PBS and 26 μM, 260 μM and 2.6 mM conjugates 1-4 in PBS. After a 20 minute incubation period at 37° C. in an atmosphere of 5% CO2, the cells were washed three times in PBS and centrifuged at 800 rpm for 5 minutes.
The FACS analysis was performed as described under 1.4.
The human malignant U373 and LN18 glioma cells were cultivated in 75 cm^2 culture flasks (Corning Costar) (70% confluency) under the conditions as described under 1.4, detached from the flask bottom with Accutase™ (PAA Laboratories) and in the following distributed on Eppendorf tubes (Eppendorf, Hamburg, Germany) (6×10^6 per tube). The cells in the first tube serve as a control (only PBS buffer only). The cells in the other ten tubes were each incubated with benzoic acid (BA), monoiodobenzoic acid (MIBA) or diiodobenzoic acid (DIBA) alone (260 μM), conjugate 3 alone (260 μM), conjugate 3 plus either BA, MIBA or DIBA (260 μM), respectively, and the conjugates 9, 10, and 11 alone. (260 μM).
After an incubation of 20 minutes at 37° C./5% CO2 the cells were washed three times with PBS buffer and centrifuged at 800 rpm (rounds per minute) for 5 minutes. The fluorescence was measured in Becton Dickinson FACSCalibur as described under 1.4. The computer tomography was performed as described under 1.5.1. The examinations were repeated two times.
For the CT and FACS examinations human LN-18 and U373 glioma cells were cultivated in 75 cm^2 culture flasks (Corning Costar) (70% confluency) (conditions as described under 1.4). Accutase™ (PAA Laboratories) was added to detach the cells from the bottom of the culture flasks. The cells were collected and then distributed on Eppendorf tubes (6×10^6 cells per tube). The cells in the first two tubes serve as a control (in each case only PBS, LN18 and U373 glioma cells, native). The cells in the other tubes (in each case LN18 and U373 glioma cells) were incubated with a 260 μM or 2.6 mM solution of the conjugate 12 for 20 minutes at 37° C. and 5% CO2 and in the following washed for three times with PBS buffer and centrifuged for 5 minutes with 800 rpm (rounds per minute). For a small amount of the cells it was tested by the MMT test (see 1.4) how many of the cells were still viable. The computer tomography of the cell centrifuges was performed with the Somatom Sensation 16 (Siemens).
The FACS analysis was performed as described under 1.4. The assay was repeated two times.
For the CT and FACS examinations human LN18 and U373 glioma cells were cultivated in 75 cm^2 culture flasks (70% confluency) (conditions as described under section 1). Accutase™ (PAA Laboratories) was added to detach the cell from the culture bottom. The cells were collected and then distributed on Eppendorf-tubes (6×10^6 cells per tube). […] The next three tubes were used for the coincubation of the cells either with trichlorobenzoic acid (TCBA), trifluorobenzoic acid (TFBA) or tribromophenyl Isocyanat (TBPI) and the NLS-FITC-conjugate 3 (260 μM). As control cells were used which were only either incubated with CIBA, FIBA, TBPI (in each case 260 μM in PBS) or with PBS-buffer (native control) alone. […] The computer tomography and FACS analysis of the cell centrifuges were performed as described in 1.5.1 or 1.4, respectively for three times. […]

| Substance | strongly labeled (heavily stained) cells, FACS (26 μM) [%] | staining of cell nuclei (CLSM overview) (260 μM) | strongly labeled (heavily stained) cells, FACS (260 μM) [%] | strongly labeled (heavily stained) cells, FACS (2.6 mM) [%] | staining of nucleoli in semi-thin sections (about 0.4 μm) (fluorescence microscopy after incubation) | stained cells [%] | number of stained cells / cellular staining rate (conjugate co-incubated with free TIBA (260 μM)) |
| --- | --- | --- | --- | --- | --- | --- | --- |
| PKKKRKVK(FITC)GGK(TIBA) (FITC, GGK linker, TIBA) [conjugate 1, FITC-labelled correct NLS of the SV 40 T antigen with TIBA] | 32 | A very large number of cell nuclei has been stained | 32 | 93 | clearly stained |  |  |
| PKKKRKVK(FITC)GGK (FITC, GGK linker) [conjugate 3, FITC-labelled correct NLS of the SV 40 T antigen without TIBA] | 6 |  | 7 | 10 |  | 8 | not associated with a higher cellular staining rate; also recorded: did not result in any changes |
| PKKKRKVK(FITC)GGK(BA) (FITC, GGK linker, benzoic acid) [conjugate 9, FITC-labelled NLS of the SV 40 T antigen with non-iodized benzoic acid] |  |  |  |  |  | 8 |  |
